Columns and labels:
IL-12 production = experiment: In vitro inhibition of IL-12 production in human blood; type: cell-based; conditions: human whole blood, lipopolysaccharide 100 ng/ml, 24 hours
Procedure: (§1) Human Whole Blood Stimulation
(§2) Peripheral blood from healthy male donors was drawn into heparinized syringes (12.5 U heparin/ml). Blood samples were three-fold diluted in RMPI 1640 medium (Life Technologies, Belgium) supplemented with 2 mM L-glutamine, 100 U/ml penicillin and 100 μg/ml streptomycin, and 300 μl fractions were distributed in 24-well multidisc plates (Nunc, Roskilde, Denmark). Blood samples were preincubated (60 minutes at 37° C.) in a humidified 6% CO2-atmosphere with 100 μl of drug solvent (final concentration 0.02% dimethylsulfoxide in RPMI 1640) or with 100 μl of an appropriate dose of test compound before being stimulated by the addition of 100 μl of lipopolysaccharide at a final concentration of 100 ng/ml. After 24 hours, cell-free supernatant fluids were collected by centrifugation and stored at −20° C. until tested for the presence of IL-12.
(§3) Cytokine protein concentrations were determined by sandwich ELISA as described in Van Wauwe et al. (1996, Inflamm Res, 45, 357–363). Murine monoclonals used as capture antibodies to human cytokines were obtained from R&D Systems (Abingdon, United Kingdom) and code named MAB210 and MAB611 for TNF-α and IL-12 respectively. Butinylated goat polyclonal antibodies used to detect human cytokines were from R&D Systems (BAF210, BAF219). Cytokine levels were calculated from standard curves using recombinant cytokines supplied by R&D Systems.

TNF-α production = experiment: In vitro inhibition of TNF-α production in human blood; type: cell-based; conditions: human whole blood, lipopolysaccharide stimulation
Procedure: as §1
as §2, with “with 100 A1 of drug” for “with 100 μl of drug”, “ng/ml. After 6 hours, cell-free” for “ng/ml. After 24 hours, cell-free”, “presence of TNF-α.” for “presence of IL-12.”
as §3

Compound	% inhib. IL-12 (p40) (IL-12 production; test dose 1 × 10^−6 M) [%]	% inhib. IL-12 (p40) (IL-12 production; test dose 1 × 10^−7 M) [%]	% inhib. TNF-α (TNF-α production; test dose 1 × 10^−6 M) [%]	% inhib. TNF-α (TNF-α production; test dose 1 × 10^−7 M) [%]
Cc1ccc(Nc2nc(-c3cnc4ccccn34)cs2)cn1.Cl.Cl.O.O [compound 577]	77	71	50	49
COc1ccc(Nc2nc(-c3cnc4ccccn34)cs2)cn1 [compound 573]	67	61	53	45
Br.Cc1cccc(Nc2nc(-c3cnn4ccccc34)cs2)c1 [compound 119]	62	62	49	49
Cl.Clc1cccc(Nc2nc(-c3cnc4ccccn34)cs2)c1Cl.O [Compound 45]	64	65	49	48
Br.Cc1ncc(-c2csc(Nc3ccc(Cl)nc3)n2)n1C [Compound 527]	61	66	37	43
Cl.FC(F)(F)c1cccc(Nc2nc(-c3cnc4sccn34)cs2)c1 [compound 549]	74	71	50	47
Br.FC(F)(F)c1cccc(Nc2nc(-c3cccnc3)cs2)c1 [compound 101]	62	65	54	53
Cl.Clc1cccc(Nc2nc(-c3ncc4ccccn34)cs2)c1Cl [compound 410]	53	58	39	43
Cc1ccc(Nc2nc(-c3cnc4ccccn34)cs2)cc1Cl.Cl [Compound 476]	75	71	58	53
Br.FC(F)(F)c1cccc(Nc2nc(-c3cnc4ccccn34)cs2)c1 [Compound 81]	65	67	51	47
Cl.c1ccc(Nc2nc(-c3c[nH]c4ccccc34)cs2)cc1 [Compound 9]	49	53	37	39
Brc1cccc(Nc2nc(-c3cnc4ccccn34)cs2)c1 [Compound 466]	95	86	57	49
Br.FC(F)(F)c1cccc(Nc2nc(-c3cnc4ccccc4c3)cs2)c1.O [compound 100]	53	51	43	41
Br.Cc1ccc(Nc2nc(-c3cnc4ncccn34)cs2)cc1Cl [compound 286]	60	63	50	48
Br.COc1ccc(Nc2nc(-c3cnc4ccccn34)cs2)cc1 [Compound 74]	70	67	56	48
Cc1ccc(Nc2nc(-c3cnc4ccccn34)cs2)cc1.Cl [Compound 39]	64	71	53	59
Br.Cc1cccc(Nc2nc(-c3cnc4cnccn34)cs2)c1.O [compound 115]	75	67	58	53
Cl.FC(F)(F)c1cncc(Nc2nc(-c3cnc4ccccn34)cs2)c1 [compound 584]	75	68	53	49
Cl.FC(F)(F)c1cccc(Nc2nc(-c3ccoc3)cs2)c1 [compound 518]	62	59	38	44
Cc1cccc(Nc2nc(-c3cnc4ccccn34)cs2)c1.Cl [Compound 31]	66	68	55	49
Cl.Cl.Clc1cccc(Nc2nc(-c3c[nH]c4ncccc34)cs2)c1Cl [Compound 166]	62	55	48	37
Cl.c1ccn2c(-c3csc(Nc4ccc5ncsc5c4)n3)cnc2c1 [compound 587]	79	75	56	56
Brc1ccc(Nc2nc(-c3cnc4ccccn34)cs2)cc1.Cl [Compound 509]	64	68	46	54
Cl.Fc1cccc(-c2csc(Nc3cccc(C(F)(F)F)c3)n2)c1 [Compound 643]	75	72	64	59
FC(F)(F)c1cccc(Nc2nc(-c3cncnc3)cs2)c1 [compound 517]	74	68	61	57
Cl.c1ccn2c(-c3csc(Nc4ccc5c(c4)CCO5)n3)cnc2c1 [compound 579]	72	75	49	50
Cl.Clc1cccc(Nc2nc(-c3cnc4sccn34)cs2)c1Cl [compound 551]	71	71	44	40

Source: US7105550B2, “2,4-disubstituted thiazolyl derivatives” (priority 2000, dated 2006)
